The record followed here is PubChem BioAssay (NCI).

Common to all, as to assay: NCI-60 cell line screen, 48 h
Assay [1] concerns A498 renal.
In assay [2] the test system is ACHN renal.
Assay [3] has as its system EKVX NSCLC.
Assay [4] has as its system HCT-116 colon.
The test system of assay [5] is MALME-3M melanoma.
Assay [6] deals with MOLT-4 leukemia.
For assay [7], the system named is OVCAR-8 ovarian.
The test system of assay [8] is SF-539 CNS.
Assay [9] deals with SNB-19 CNS.
Assay [10] has as its system SW-620 colon.

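Step 1: Grow cells in 96-well plates. Step 2: Expose to compound for 48 hours at 5 concentrations. Step 3: Interpolate endpoints linearly; if unreached, use highest concentration. GI50 = concentration required for 50% inhibition of growth. TGI denotes the concentration required for complete inhibition of growth.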

`COc1cc2c(cc1OC)C(OC)N(C)c1c-2ccc2cc3c(cc12)OCO3` (configuration not stated): the TGI in [1] was 1.83 µM; in assay [2] it was > 75 µM; in assay [3], 15 µM; in assay [4], 7.63 µM; in [5], 20 µM; in [6], 16.1 µM. Further, the TGI is 21.6 µM in assay [7], 4.69 µM in assay [8], > 75 µM in [9] and 8.35 µM in [10].

As to `Fc1ccc(-c2ncn(C3CCNCC3)c2-c2ccnc(Oc3ccc(F)c(F)c3)n2)cc1`, the GI50 is 10.8 µM in [1]; 9.9 µM in assay [2]; > 14.6 µM in [3]; 4.09 µM in assay [4]; 5.19 µM in [5]; 8.34 µM in assay [6]. The GI50 in assay [7] is 4.96 µM; in assay [8], 4.94 µM; in assay [9], 12.2 µM; in [10] it was 4.36 µM. Moreover, the TGI is > 25 µM in assay [1]; > 25 µM in [2]; > 25 µM in assay [3]; 7.56 µM in [4]; 9.85 µM in assay [5]; > 19.1 µM in assay [6]. The TGI in [7] was 10.9 µM; in assay [8], 9.8 µM; in assay [9] it was > 25 µM; in [10], 8.98 µM.

Take `Cc1nc([C@H]2CC[C@H]3[C@@H]4CCC5=CC(=O)CC[C@]5(C)[C@H]4CC[C@]23C)cs1`: the GI50 in assay [1] was > 53.3 µM; in assay [2] it was 7.72 µM; in [3], 1.65 µM; in [4], 3.47 µM; in [5] it was 15.2 µM; in assay [6], 2.25 µM. The GI50 in assay [7] is 4.62 µM; in assay [8] it was 18.3 µM; in assay [9], > 100 µM; in [10], 7.66 µM. Moreover, the TGI in assay [1], in [2], in assay [3], in [4], in assay [5] and in [6] was > 100 µM each time. The TGI in [7], in [8], in assay [9] and in [10] was > 100 µM throughout.

As to `O=C(O)c1ccc(S(=O)(=O)Nc2ccc3oc4c(c3c2)C(=O)CCC4)cc1`, the GI50 in assay [1], in assay [2], in [3], in assay [4], in assay [5] and in assay [6] was > 100 µM each time. Further, the GI50 in assay [7], in assay [8], in assay [9] and in [10] was > 100 µM throughout. Further, the TGI in assay [1], in [2], in assay [3], in assay [4], in assay [5] and in assay [6] was > 100 µM each time. The TGI in [7], in assay [8], in assay [9] and in assay [10] was > 100 µM in each case.

With `CC(=O)N1c2ccccc2NC2=C(C(=O)N(Cc3ccccc3)C2(C)C)C1c1ccco1` (configuration not stated), the GI50 in [1] was 0.727 µM; in [2] it was 1.35 µM; in [3], 1.73 µM; in assay [4] it was 0.692 µM; in assay [5], 1.2 µM; in assay [6], 0.786 µM. Also, the GI50 in assay [7] was 1.24 µM; in assay [8], 0.395 µM; in assay [9], 0.524 µM; in assay [10] it was 0.58 µM. Besides, the TGI was > 7.06 µM in assay [1]; > 25 µM in assay [2]; > 25 µM in assay [3]; > 25 µM in assay [4]; > 25 µM in assay [5]; > 25 µM in [6]. Besides, the TGI in assay [7] was > 25 µM; in assay [8], 1.17 µM; in assay [9], > 25 µM; in [10], > 25 µM.

For the compound `CN(C)C/C=C/C(=O)Nc1cc2c(Nc3ccc(F)c(Cl)c3F)ncnc2cc1OCCOC(F)F`, the GI50 was 0.282 µM in assay [1]; < 0.01 µM in assay [2]; < 0.0302 µM in assay [3]; 0.625 µM in assay [4]; 1.27 µM in [5]; 1.11 µM in [6]. The GI50 was 0.972 µM in assay [7], 0.999 µM in assay [8], 1.57 µM in [9] and 1.24 µM in assay [10]. Besides, the TGI in assay [1] was found to be 1.91 µM; in assay [2], 1.08 µM; in assay [3], 3 µM; in assay [4] it was 2.98 µM; in assay [5], 2.94 µM; in assay [6], 5.43 µM. Further, the TGI was found to be 9.9 µM in assay [7], 3.02 µM in [8], 11.6 µM in assay [9] and 9.58 µM in assay [10].

With `O=C(O)/C(Cl)=C(\Cl)C(=O)NC1C2CC3CC(C2)CC1C3` (configuration not stated), the TGI in assay [1], in [2], in assay [3], in assay [4], in [5] and in [6] was > 100 µM throughout. Besides, the TGI in assay [7], in assay [8], in assay [9] and in assay [10] was > 100 µM each time.

Turning to `COc1ccc(C[C@@H]2NC[C@@H](O)[C@@H]2OC(C)=O)cc1`, the GI50 in assay [1] was 1.14 µM; in [2], 9.5 µM; in assay [3] it was 1.55 µM; in [4], 2.92 µM; in assay [5], 3.97 µM; in [6] it was 2.81 µM. The GI50 in [7] was 3.48 µM; in assay [8], 9.48 µM; in assay [9], 3.73 µM; in assay [10] it was 4.16 µM. For the same compound, the TGI in assay [7] is 0.112 µM; in [8] it was > 100 µM.

Take `C#CCN(N=O)C(=O)NC(CCCNC(=O)OCc1ccccc1)C(=O)OCc1ccccc1` (configuration not stated): the TGI in assay [1] was > 100 µM; in assay [2], > 100 µM; in [3], > 100 µM; in [4], > 100 µM; in [5], > 100 µM; in [6], 65.5 µM. Moreover, the TGI in [7], in assay [8], in assay [9] and in [10] was > 100 µM each time.
